In assay [1] the test system is Matrix Metalloproteinase-3 (MMP-3). As to the kind of experiment: Inhibition of MMP-3 production in IL-1β induced A549 cells (ELISA). The class given is cell-based. To be noted: 10 ng/mL IL-1β induced A549 human lung tumor cells, 24 h, supernatant ELISA. As to the method:
A549 cells were induced with 10 ng/ml human IL-1β in absence or presence of different concentrations of LI/DD-II/054A/01 for 24 h as indicated. Secreted MMP-3 concentration in the cell free culture supernatants was measured using MMP-3 ELISA Development Kit (R&D System, Minneapolis, Minn., USA). The MMP-3 concentration in culture supernatants was estimated quantitatively from the standard curve generated using known concentrations of MMP-3. Percentage of MMP-3 inhibition at each concentration of test compound was calculated from the formula: {(Conc. of MMP-3 in IL-1β induced−Conc. of MMP-3 in the test well)×100}÷Conc. of MMP-3 in IL-1β induced wells.
MMP-3 was evaluated in Interleukin-1β induced human lung tumor cell line A549. Briefly, the cells were cultured in DMEM with 2 mM Glutamine, 100 U/mL penicillin, […] streptomycin and 10% fetal bovine serum (Hyclone, Logan, Utah). Five thousand cells per well were seeded into a 96-well cell culture plate (Corning, USA) one day before the experiment. The culture media was replaced with fresh DMEM containing 10% fetal bovine serum. […] The MMP-3 concentration in culture supernatant was estimated quantitatively by interpolating the optical densities into the standard curve generated from known concentrations of MMP-3. […]
A general note: An ELISA detects its analyte on a solid surface through an enzyme-linked reagent.

In a further assay the test system is CD36. As to the kind of experiment: Immunoblot of CD36 in high glucose induced J774 macrophage cells. To be noted: glucose 600 mg/dL for 5 days, LI054A01 at 1 μg/ml. Type of assay: cell-based, mouse. As to the method:
In macrophages, CD36 is a scavenger receptor that mediates uptake of oxidized low-density lipoprotein (OxLDL) and subsequent foam-cell development. Therefore, increased level of CD36 in macrophages has been considered as a predictive marker for development of atherosclerosis. Inhibition of CD36 protein expression in high glucose induced J774 macrophage cells in presence or absence of LI/DD-II/054A/01 and LI054A01 was evaluated using immunoblot assay. Briefly, equal amount of cell lysates protein obtained after treating the cells with LI/DD-II/054A/01 or LI054A01 was resolved in 7.5% SDS-PAGE; thereafter, the proteins were transferred to nitrocellulose membrane. […] Finally, the specific immuno-reactive bands were developed with West-pico chemiluminescent substrate (Pierce Biotechnology, IL, USA), and the immunoblot images were recorded in a Kodak Image Station (Kodak, USA). Band intensities were calculated densitometrically and normalized with expression of actin in respective samples. […]
Experimental protocol: This was evaluated in glucose induced J774, mouse macrophage cells. […] Protein concentration was measured by Bradford method.
Inhibition of CD36 protein expression in high glucose induced J774 macrophage cells in presence or absence of LI/DD-II/054A/01 and LI054A01 was evaluated in immunoblot assay. […]
(In general: A western blot detects proteins with antibodies after separation by electrophoresis.)

We go through one molecule from patent US9241964B2, “Composition from Sphaeranthus indicus and Garcinia mangostana for the control of metabolic syndrome” (LAILA NUTRACEUTICALS, priority 2009, dated 2016).

Values after ≈ are worked out from the molar mass of the structure shown.

Take `C=C1C(=O)O[C@H]2C3=C(C)CCC[C@]3(C)CC[C@@]12O` [LI054A01, 7-α-hydroxy-4,11(13)-eudesmadien-12,6-olide]: in assay [1], the “IC50 against MMP-3” value was 0.075 µg/mL (≈ 0.302 µM). Further, the “inhibition of CD36 compared to that shown by LI/DD-II/054A/01” value with CD36 came out at 10 times.
